In PubChem BioAssay AID2060493 (Molecular Pharmacology Branch, DTP, NCI, 2025):
Blank lines part the entries; values can stand above or below the compound they belong to.

Test system: 616215-338-R-J1-PDC tumor spheroids, viability
Assay: Anticancer human tumor 616215-338-R-J1-PDC patient-derived colon adenocarcinoma cell line growth inhibition [GQUAD]
Conditions: spheroids with HUVEC and MSC; for IC50: curve of first compound; for viability, T/C: stronger effect = lower value
Method in brief: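 Tumor cells were grown as complex spheroids with HUVEC endothelial cells and mesenchymal stem cells as stroma. G-quadruplex stabilizers were combined with targeted agents over half-log dilutions from near the clinical Cmax, or from 10 microM.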

[1] = second compound 0.0316 µM, first compound 0.0316 µM
[2] = second compound 0.0316 µM, first compound 0.1 µM
[3] = second compound 0.0316 µM, first compound 0.316 µM
[4] = second compound 0.0316 µM, first compound 1 µM
[5] = second compound 0.0316 µM, first compound 3.16 µM
[6] = second compound 0.0316 µM, first compound 10 µM
[7] = second compound 0.1 µM, first compound 0.0316 µM
[8] = second compound 0.1 µM, first compound 0.1 µM
[9] = second compound 0.1 µM, first compound 0.316 µM
[10] = second compound 0.1 µM, first compound 1 µM
[11] = second compound 0.1 µM, first compound 3.16 µM
[12] = second compound 0.1 µM, first compound 10 µM
[13] = second compound 0.316 µM, first compound 0.0316 µM
[14] = second compound 0.316 µM, first compound 0.1 µM
[15] = second compound 0.316 µM, first compound 0.316 µM
[16] = second compound 0.316 µM, first compound 1 µM
[17] = second compound 0.316 µM, first compound 3.16 µM
[18] = second compound 0.316 µM, first compound 10 µM
[19] = second compound 1 µM, first compound 0.0316 µM
[20] = second compound 1 µM, first compound 0.1 µM
[21] = second compound 1 µM, first compound 0.316 µM
[22] = second compound 1 µM, first compound 1 µM
[23] = second compound 1 µM, first compound 3.16 µM
[24] = second compound 1 µM, first compound 10 µM
[25] = second compound 3.16 µM, first compound 0.0316 µM
[26] = second compound 3.16 µM, first compound 0.1 µM
[27] = second compound 3.16 µM, first compound 0.316 µM
[28] = second compound 3.16 µM, first compound 1 µM
[29] = second compound 3.16 µM, first compound 3.16 µM
[30] = second compound 3.16 µM, first compound 10 µM
[31] = second compound 10 µM, first compound 0.0316 µM
[32] = second compound 10 µM, first compound 0.1 µM
[33] = second compound 10 µM, first compound 0.316 µM
[34] = second compound 10 µM, first compound 1 µM
[35] = second compound 10 µM, first compound 3.16 µM
[36] = second compound 10 µM, first compound 10 µM
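Further: spheroids exposed to agents for 7 days before readout.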
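Wherever viability, T/C is given: percent viability relative to DMSO vehicle control wells taken as 100%.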

SMILES: CC(C)(O)C1CCC(Nc2ccc3ncc(-c4cccc(C(F)(F)F)c4)n3n2)CC1 (stereo not given) + Cc1[nH]c2ccc(F)cc2c1-c1nc2c3cccnc3c3ncccc3c2[nH]1
IC50 (second compound 0.0316 µM): 610 nM
IC50 (second compound 0.1 µM): 596 nM
IC50 (second compound 0.316 µM): 591 nM
IC50 (second compound 1 µM): 644 nM
IC50 (second compound 3.16 µM): 584 nM
IC50 (second compound 10 µM): 566 nM
viability, T/C [1]: 99.1%
viability, T/C [2]: 103%
viability, T/C [3]: 103%
viability, T/C [4]: 11.2%
viability, T/C [5]: 0.5%
viability, T/C [6]: 1.09%
viability, T/C [7]: 93.7%
viability, T/C [8]: 109%
viability, T/C [9]: 94.3%
viability, T/C [10]: 13.8%
viability, T/C [11]: 0.24%
viability, T/C [12]: 2.5%
viability, T/C [13]: 92%
viability, T/C [14]: 97%
viability, T/C [15]: 97.6%
viability, T/C [16]: 11.7%
viability, T/C [17]: 2.23%
viability, T/C [18]: 1.14%
viability, T/C [19]: 97%
viability, T/C [20]: 89.9%
viability, T/C [21]: 91.6%
viability, T/C [22]: 24.3%
viability, T/C [23]: 0.55%
viability, T/C [24]: 1.33%
viability, T/C [25]: 98.8%
viability, T/C [26]: 103%
viability, T/C [27]: 95.2%
viability, T/C [28]: 10.4%
viability, T/C [29]: 0.45%
viability, T/C [30]: 0.48%
viability, T/C [31]: 90.1%
viability, T/C [32]: 94.4%
viability, T/C [33]: 93.2%
viability, T/C [34]: 8.43%
viability, T/C [35]: 0.77%
viability, T/C [36]: 0.56%

IC50 (second compound 0.0316 µM): > 10000 nM
IC50 (second compound 0.1 µM): > 10000 nM
IC50 (second compound 0.316 µM): < 31.6 nM
IC50 (second compound 1 µM): < 31.6 nM
IC50 (second compound 3.16 µM): < 31.6 nM
IC50 (second compound 10 µM): < 31.6 nM
SMILES: COc1ncnc(C2CC2)c1-c1ncc2cnn(Cc3ccc(-c4nc(C(F)(F)F)cn4C(C)C)cc3)c2n1 + Cc1cnc(CNC(=O)c2c(=O)c3ccc(N4CCCN(C)CC4)nc3n3c2sc2ccccc23)cn1
viability, T/C [1]: 108%
viability, T/C [2]: 98.7%
viability, T/C [3]: 113%
viability, T/C [4]: 97.2%
viability, T/C [5]: 108%
viability, T/C [6]: 100%
viability, T/C [7]: 70.8%
viability, T/C [8]: 72.2%
viability, T/C [9]: 62.1%
viability, T/C [10]: 57.5%
viability, T/C [11]: 64.2%
viability, T/C [12]: 58.3%
viability, T/C [13]: 48.9%
viability, T/C [14]: 46%
viability, T/C [15]: 34.3%
viability, T/C [16]: 34.8%
viability, T/C [17]: 41.4%
viability, T/C [18]: 66.7%
viability, T/C [19]: 22.7%
viability, T/C [20]: 35.4%
viability, T/C [21]: 36.1%
viability, T/C [22]: 32.6%
viability, T/C [23]: 34.3%
viability, T/C [24]: 31.3%
viability, T/C [25]: 23%
viability, T/C [26]: 28.7%
viability, T/C [27]: 22.4%
viability, T/C [28]: 26.7%
viability, T/C [29]: 40.3%
viability, T/C [30]: 27.1%
viability, T/C [31]: 13.8%
viability, T/C [32]: 28.4%
viability, T/C [33]: 21.3%
viability, T/C [34]: 25.5%
viability, T/C [35]: 35.1%
viability, T/C [36]: 22.1%

SMILES: C#Cc1c(F)ccc2cc(O)cc(-c3ncc4c(N5CC6CCC(C5)N6)nc(OCC56CCCN5CC(F)C6)nc4c3F)c12 (stereo not given) + CN(C)c1ccc(Nc2c3ccc(NC(=O)CCN4CCCC4)cc3nc3cc(NC(=O)CCN4CCCC4)ccc23)cc1
IC50 (second compound 0.0316 µM): > 10000 nM
IC50 (second compound 0.1 µM): 9070 nM
IC50 (second compound 0.316 µM): > 10000 nM
IC50 (second compound 1 µM): 9220 nM
IC50 (second compound 3.16 µM): 8570 nM
IC50 (second compound 10 µM): 3020 nM
viability, T/C [1]: 91.1%
viability, T/C [2]: 103%
viability, T/C [3]: 102%
viability, T/C [4]: 113%
viability, T/C [5]: 108%
viability, T/C [6]: 61.4%
viability, T/C [7]: 103%
viability, T/C [8]: 105%
viability, T/C [9]: 111%
viability, T/C [10]: 111%
viability, T/C [11]: 105%
viability, T/C [12]: 44.9%
viability, T/C [13]: 106%
viability, T/C [14]: 109%
viability, T/C [15]: 110%
viability, T/C [16]: 105%
viability, T/C [17]: 90.4%
viability, T/C [18]: 64.3%
viability, T/C [19]: 109%
viability, T/C [20]: 100%
viability, T/C [21]: 106%
viability, T/C [22]: 105%
viability, T/C [23]: 98%
viability, T/C [24]: 46.3%
viability, T/C [25]: 109%
viability, T/C [26]: 86.8%
viability, T/C [27]: 100%
viability, T/C [28]: 93.5%
viability, T/C [29]: 106%
viability, T/C [30]: 42.3%
viability, T/C [31]: 99.4%
viability, T/C [32]: 79.6%
viability, T/C [33]: 94.2%
viability, T/C [34]: 67.5%
viability, T/C [35]: 50.1%
viability, T/C [36]: 22.4%

SMILES: Cc1[nH]c2ccccc2c1CCNCc1ccc(/C=C/C(=O)NO)cc1 + CN(C)c1ccc(Nc2c3ccc(NC(=O)CCN4CCCC4)cc3nc3cc(NC(=O)CCN4CCCC4)ccc23)cc1
IC50 (second compound 0.0316 µM): 174 nM
IC50 (second compound 0.1 µM): 132 nM
IC50 (second compound 0.316 µM): 134 nM
IC50 (second compound 1 µM): 118 nM
IC50 (second compound 3.16 µM): 90.8 nM
IC50 (second compound 10 µM): 66.1 nM
viability, T/C (second compound 0.0316 µM, first compound 0.000999 µM): 104%
viability, T/C (second compound 0.0316 µM, first compound 0.00316 µM): 102%
viability, T/C (second compound 0.0316 µM, first compound 0.00999 µM): 104%
viability, T/C [1]: 107%
viability, T/C (second compound 0.0316 µM, first compound 0.0999 µM): 83.1%
viability, T/C [3]: 14.2%
viability, T/C (second compound 0.1 µM, first compound 0.000999 µM): 93.1%
viability, T/C (second compound 0.1 µM, first compound 0.00316 µM): 99.5%
viability, T/C (second compound 0.1 µM, first compound 0.00999 µM): 104%
viability, T/C [7]: 88.8%
viability, T/C (second compound 0.1 µM, first compound 0.0999 µM): 61.2%
viability, T/C [9]: 15.8%
viability, T/C (second compound 0.316 µM, first compound 0.000999 µM): 101%
viability, T/C (second compound 0.316 µM, first compound 0.00316 µM): 103%
viability, T/C (second compound 0.316 µM, first compound 0.00999 µM): 113%
viability, T/C [13]: 104%
viability, T/C (second compound 0.316 µM, first compound 0.0999 µM): 62.7%
viability, T/C [15]: 12.3%
viability, T/C (second compound 1 µM, first compound 0.000999 µM): 113%
viability, T/C (second compound 1 µM, first compound 0.00316 µM): 93.8%
viability, T/C (second compound 1 µM, first compound 0.00999 µM): 105%
viability, T/C [19]: 86%
viability, T/C (second compound 1 µM, first compound 0.0999 µM): 57%
viability, T/C [21]: 7.13%
viability, T/C (second compound 3.16 µM, first compound 0.000999 µM): 102%
viability, T/C (second compound 3.16 µM, first compound 0.00316 µM): 96.8%
viability, T/C (second compound 3.16 µM, first compound 0.00999 µM): 87.8%
viability, T/C [25]: 92%
viability, T/C (second compound 3.16 µM, first compound 0.0999 µM): 46.2%
viability, T/C [27]: 12.2%
viability, T/C (second compound 10 µM, first compound 0.000999 µM): 92.9%
viability, T/C (second compound 10 µM, first compound 0.00316 µM): 93%
viability, T/C (second compound 10 µM, first compound 0.00999 µM): 77.7%
viability, T/C [31]: 70.3%
viability, T/C (second compound 10 µM, first compound 0.0999 µM): 39.3%
viability, T/C [33]: 0.37%

SMILES: Cc1cccc(N(C)C(=O)C2C(O)CCN2c2nc(C)cc(C(F)(F)F)c2C#N)c1 (stereo not given) + CN(C)c1ccc(Nc2c3ccc(NC(=O)CCN4CCCC4)cc3nc3cc(NC(=O)CCN4CCCC4)ccc23)cc1
IC50 (second compound 0.0316 µM): > 10000 nM
IC50 (second compound 0.1 µM): > 10000 nM
IC50 (second compound 0.316 µM): > 10000 nM
IC50 (second compound 1 µM): > 10000 nM
IC50 (second compound 3.16 µM): > 10000 nM
IC50 (second compound 10 µM): 3120 nM
viability, T/C [1]: 111%
viability, T/C [2]: 97.9%
viability, T/C [3]: 103%
viability, T/C [4]: 103%
viability, T/C [5]: 105%
viability, T/C [6]: 109%
viability, T/C [7]: 102%
viability, T/C [8]: 101%
viability, T/C [9]: 108%
viability, T/C [10]: 101%
viability, T/C [11]: 104%
viability, T/C [12]: 96.2%
viability, T/C [13]: 104%
viability, T/C [14]: 99.5%
viability, T/C [15]: 104%
viability, T/C [16]: 107%
viability, T/C [17]: 114%
viability, T/C [18]: 110%
viability, T/C [19]: 100%
viability, T/C [20]: 99.1%
viability, T/C [21]: 106%
viability, T/C [22]: 97.8%
viability, T/C [23]: 102%
viability, T/C [24]: 98.7%
viability, T/C [25]: 98.6%
viability, T/C [26]: 93.1%
viability, T/C [27]: 103%
viability, T/C [28]: 102%
viability, T/C [29]: 88.2%
viability, T/C [30]: 88.9%
viability, T/C [31]: 102%
viability, T/C [32]: 78.2%
viability, T/C [33]: 80.2%
viability, T/C [34]: 63.5%
viability, T/C [35]: 49%
viability, T/C [36]: 36.6%
